Reference: US20260183350A1, “ANTIBIOTIC-RESISTANT BACTERIA” (priority 2022, published 2026)

Legend:
NDM-1 Escherichia coli [1] = test: Nutrient preference assay (nutrient mixture); type: cell-based; conditions: M9 with […] of each nutrient, up to 24 hours
Procedure: (§1) New Delhi Metallo-β-lactamase 1 (NDM-1) Escherichia coli, NDM-1 Klebsiella pneumoniae, and NDM-1 Enterobacter cloacae were isolated from patients with intestinal CRE colonisation from the Imperial College Healthcare NHS Trust via rectal swab (REC ref. 19/LO/0112). The species were assigned by matrix assisted laser desorption ionization-time of flight (MALDI-TOF) mass spectrometry and later confirmed with 16S rRNA gene sequencing. CRE status was determined using X-pert Carba-R PCR detection (Cepheid, Sunnyvale, CA, USA), (Otter, J. A. et al. Detecting carbapenemase-producing Enterobacterales (CPE): an evaluation of an enhanced CPE infection control and screening programme in acute care. J Antimicrob Chemother 75, 2670-2676 (2020)).
(§2) CRE isolates were passaged once from frozen glycerol stocks on R2A plates. Cells were suspended in M9 minimal media to a turbidity of 42% using a Turbidimeter (Biolog Inc.), then diluted 1 in 6 to inoculate the nutrient preference assays. M9 minimal media was supplemented with 0.015% of each of the following: L-arabinose, D-fructose, L-fucose, D-galactose, D-glucose, D-mannose, D-ribose, D-xylose, N-acetylglucosamine, D-maltose, sucrose, D-trehalose, L-alanine, L-arginine, L-aspartate, L-glutamate, L-glycine, L-isoleucine, L-leucine, L-lysine, L-methionine, L-phenylalanine, L-proline, L-threonine, L-tryptophan, L-tyrosine, L-valine, uracil, and succinate. Cultures were incubated anaerobically and aerobically in a plate reader and OD600 readings were collected every 15 minutes for 24 hours. Cultures were also incubated anaerobically and aerobically for 24 h and samples were collected at 0, 4, 8, and 24 hours post-inoculation for 1H-NMR spectroscopy. Changes in nutrients and metabolites by CRE isolates was compared to the sterile media control over time using a two-way mixed ANOVA followed by pairwise comparisons with Bonferroni correction. […]

[2] = tested on: NDM-1 Klebsiella pneumoniae; test: Nutrient preference assay (nutrient mixture); type: cell-based; conditions: M9 with […] of each nutrient, up to 24 hours
Procedure: as §1, §2

[3] = tested on: NDM-1 Enterobacter cloacae; test: Nutrient preference assay (nutrient mixture); type: cell-based; conditions: M9 with […] of each nutrient, up to 24 hours
Procedure: as §1, §2

NDM-1 Escherichia coli [4] = test: Nitrogen utilisation assay; type: cell-based; conditions: M9 minimal medium with glucose, 0.1% (w/v) nitrogen source
Procedure: as §1
(§3) Growth of CRE isolates on sole carbon or nitrogen sources was tested by inoculating each CRE isolate into a minimal medium supplemented with the nutrient of interest. First, CRE isolates were passaged from frozen glycerol stocks on Reasoner's 2A agar (R2A) plates. Cells were then suspended in M9 minimal media to a turbidity of 42% using a Turbidimeter (Biolog Inc.), then diluted a further 1 in 6 to inoculate the carbon or nitrogen utilisation assays. M9 minimal media contained the following (at final concentrations): 22 mM KH2PO4, 42 mM Na2HPO4, 9 mM NaCl, 0.49 mM MgSO4·7H2O, 0.09 mM CaCl2), 0.011 mM FeSO4·7H2O. For the carbon assays the M9 minimal medium was also supplemented with 0.1% (w/v) NH4Cl (as the nitrogen source) and the carbon sources were individually tested at 0.5% (w/v) concentration. For the nitrogen assays the M9 minimal medium was also supplemented with 0.5% (w/v) glucose (as the carbon source) and the nitrogen sources were individually tested at 0.1% (w/v) concentration. Cultures were incubated anaerobically and aerobically in a plate reader and OD600 readings were collected every 15 minutes for 24 hours.
(§4) Growth curves were analysed in Python (v3.6.5) using the AMiGA software (Midani, F. S., Collins, J. & Britton, R. A. AMiGA: Software for Automated Analysis of Microbial Growth Assays. mSystems 6, e0050821 (2021)). Growth of each isolate was measured with 6 wells from 2-3 independent experiments. Growth curves were normalised to the no substrate control using the subtraction method. AMiGA performed Gaussian Process regression to test differential growth between the substrate and the no substrate control. The functional difference in the OD (and its credible interval) was also computed between the substrate and the no substrate control.

[5] = tested on: NDM-1 Klebsiella pneumoniae; test: Nitrogen utilisation assay; type: cell-based; conditions: M9 minimal medium with glucose, 0.1% (w/v) nitrogen source
Procedure: as §1, §3, §4

[6] = tested on: NDM-1 Enterobacter cloacae; test: Nitrogen utilisation assay; type: cell-based; conditions: M9 minimal medium with glucose, 0.1% (w/v) nitrogen source
Procedure: as §1, §3, §4

NDM-1 Escherichia coli [7] = test: Carbon utilisation assay; type: cell-based; conditions: M9 minimal medium, 0.5% (w/v) carbon source
Procedure: as §1, §3, §4

[8] = tested on: NDM-1 Klebsiella pneumoniae; test: Carbon utilisation assay; type: cell-based; conditions: M9 minimal medium, 0.5% (w/v) carbon source
Procedure: as §1, §3, §4

[9] = tested on: NDM-1 Enterobacter cloacae; test: Carbon utilisation assay; type: cell-based; conditions: M9 minimal medium, 0.5% (w/v) carbon source
Procedure: as §1, §3, §4

[10] = tested on: vancomycin-resistant E. faecium; test: VRE nutrient utilization protocol: carbon sources; type: cell-based, Enterococcus faecium; conditions: aerobic; VRE minimal medium
Procedure: (§5) VRE minimal media consists of potassium phosphate monobasic (4 g/L), potassium phosphate dibasic (14 g/L), sodium citrate (1 g/L), magnesium sulphate (0.2 g/L), ammonium sulphate (2 g/L), adenosine (0.04 g/L), thymine (0.04 g/L), Kao and Michayluk vitamin solution [Sigma, K3129, 50× Stock](5×), glucose (1 g/L) and amino acid solution [Sigma, R7131, RPMI-1640, 50×](25×). If the study was performed under anaerobic conditions, fumarate (5.2 g/L) was added to increase growth of VRE strains. Carbon-free minimal media was prepared by leaving out glucose while nitrogen-free minimal media was prepared without the amino acid solution. Media was filter sterilized with a 0.22 micron filter and used immediately aerobically or degassed overnight if used anaerobically.
(§6) VRE strains were grown on R2A overnight before the cells were suspended in 0.9% saline to an OD of 0.38 (λ=595 nm). A 10% dilution of the cell suspension was prepared using VRE minimal media to achieve a final well OD of […] (λ=595 nm) greater than the sterile media OD. Both carbon and nitrogen source utilization were evaluated by adding the inoculated media and a filter-sterilised nutrient source solution into a well in a 1:1 ration to a final volume of 100 μL in aerobic tests and 200 μL in anaerobic tests. Carbon sources were tested individually and compared to a carbon-free control. To test nitrogen source utilization, a nitrogen source solution was prepared containing L-alanine (2 g/L), L-arginine (2.5 g/L, L-asparagine (0.71 g/L), L-aspartate (0.25 g/L), L-cysteine (0.625 g/L), L-glutamate (0.25 g/L), L-Glycine (0.125 g/L), L-histidine (0.1875 g/L), L-isoleucine (0.625 g/L), L-leucine (0.625 g/L), L-lysine HCl (0.5 g/L), L-methionine (0.1875 g/L), L-phenylalanine (0.1875 g/L), L-proline (0.25 g/L), L-serine (0.375 g/L), L-threonine (0.25 g/L), L-tryptophan (0.0625 g/L), L-tyrosine (0.29 g/L), L-valine (0.25 g/L), N-acetylglucosamine (2 g/L), and uracil (2.5 g/L). To test the strains' ability to utilize individual nitrogen sources, separate solutions were prepared eliminating one nitrogen source each. The change in growth compared to the complete nitrogen source solution control was used to determine nitrogen utilization. All carbon and nitrogen sources were tested in a technical triplicate for each biological replicate. Aerobic plates were incubated with a plate seal while anaerobic plates were not. The aerobic plate reader was set to read the plate (λ=595 nm, 37° C., 22 flashes per well, orbital shaking of 100 rpm for 15 s prior to each read) every 15 minutes for 24 hours. The anaerobic plate reader read the plate (λ=595 nm, 37° C., stationary) every 15 minutes for 24 hours.

[11] = tested on: vancomycin-resistant E. faecalis; test: VRE nutrient utilization protocol: nitrogen sources, leave-one-out; type: cell-based, Enterococcus faecalis; conditions: aerobic; leave-one-out from nitrogen source mixture in minimal medium
Procedure: as §5, §6

[12] = tested on: vancomycin-resistant E. faecium; test: as above; type: cell-based, Enterococcus faecium; conditions: aerobic; leave-one-out from nitrogen source mixture in minimal medium
Procedure: as §5, §6

SMILES | Utilisation of nutrient by E. coli from nutrient mixture (1H-NMR) (NDM-1 Escherichia coli [1]; anaerobic) | Utilisation of nutrient by K. pneumoniae from nutrient mixture (1H-NMR) ([2]; anaerobic) | Utilisation of nutrient by E. cloacae from nutrient mixture (1H-NMR) ([3]; anaerobic) | Use as sole nitrogen source to support E. coli growth (NDM-1 Escherichia coli [4]; aerobic) | Use as sole nitrogen source to support K. pneumoniae growth ([5]; aerobic) | Use as sole nitrogen source to support E. cloacae growth ([6]; aerobic) | Utilisation of nutrient by E. cloacae from nutrient mixture (1H-NMR) ([3]; aerobic) | Use as nitrogen source to support E. faecalis growth [11] | Use as nitrogen source to support E. faecium growth [12] | Utilisation of nutrient by E. coli from nutrient mixture (1H-NMR) (NDM-1 Escherichia coli [1]; aerobic) | Utilisation of nutrient by K. pneumoniae from nutrient mixture (1H-NMR) ([2]; aerobic) | also measured
C[C@H](N)C(=O)O [alanine, L-alanine] | not utilised | not utilised | not utilised | able to grow | able to grow | able to grow | – | – | – | – | – | Use as sole carbon source to support E. coli growth (NDM-1 Escherichia coli [7]; aerobic): able to grow; Use as sole carbon source to support K. pneumoniae growth ([8]; aerobic): able to grow; Use as sole carbon source to support E. cloacae growth ([9]; aerobic): able to grow
O=C[C@H](O)[C@@H](O)[C@@H](O)CO [arabinose, L-arabinose] | – | – | – | – | – | – | – | – | – | – | – | Use as sole carbon source to support E. coli growth (NDM-1 Escherichia coli [7]; anaerobic): could use; Use as sole carbon source to support K. pneumoniae growth ([8]; anaerobic): could use; Use as sole carbon source to support E. cloacae growth ([9]; anaerobic): could use; Use as sole carbon source to support E. faecium growth [10]: could use
N=C(N)NCCC[C@H](N)C(=O)O [arginine, L-arginine] | – | – | high utilisation | – | could use | – | high utilisation | could use | could use | – | – | Use as sole nitrogen source to support E. coli growth (NDM-1 Escherichia coli [4]; anaerobic): could use; Use as sole nitrogen source to support K. pneumoniae growth ([5]; anaerobic): could use; Use as sole nitrogen source to support E. cloacae growth ([6]; anaerobic): could use
N[C@@H](CCC(=O)O)C(=O)O [glutamate, L-glutamate] | – | – | – | able to grow | able to grow | able to grow | moderate utilisation | could use | could use | moderate utilisation | moderate utilisation | Use as sole carbon source to support K. pneumoniae growth ([8]; aerobic): able to grow; Use as sole carbon source to support E. cloacae growth ([9]; aerobic): able to grow
NCCCC[C@H](N)C(=O)O [lysine, L-lysine] | high utilisation | high utilisation | produced low levels | able to grow | able to grow | able to grow | produced low levels | could use | could use | moderate utilisation | high utilisation | –
CSCC[C@H](N)C(=O)O [methionine, L-methionine] | – | – | – | able to grow | able to grow | able to grow | – | could use | could use | – | – | –
N[C@@H](Cc1c[nH]c2ccccc12)C(=O)O [tryptophan, L-tryptophan] | moderate utilisation | not utilised | not utilised | able to grow | – | – | not utilised | could use | could use | high utilisation | not utilised | Use as sole carbon source to support E. faecium growth [10]: could use
O=C[C@H](O)[C@@H](O)[C@H](O)CO [xylose, D-xylose] | – | – | – | – | – | – | – | – | – | – | – | Use as sole carbon source to support E. coli growth (NDM-1 Escherichia coli [7]; anaerobic): could use; Use as sole carbon source to support K. pneumoniae growth ([8]; anaerobic): could use; Use as sole carbon source to support E. cloacae growth ([9]; anaerobic): could use
